Laboratory results published in US20060004070A1, “Fungicidal active substance combinations” (priority 2002, published 2006).

Legend:
Leptosphaeria nodorum = Leptosphaeria nodorum test (wheat)/protective; format: in vivo; details: protective spray, application rate 100 g/ha, evaluation 10 days after inoculation
Protocol: Leptosphaeria nodorum test (wheat)/protective Solvent: 25 parts by weight of N,N-dimethylacetamide Emulsifier: 0.6 part by weight of alkylaryl polyglycol ether To produce a suitable preparation of active compound, 1 part by weight of active compound combination is mixed with the stated amounts of solvent and emulsifier, and the concentrate is diluted with water to the desired concentration. To test for protective activity, young plants are sprayed with the preparation of active compound at the stated application rate. After the spray coating has dried on, the plants are sprayed with a spore suspension of Leptosphaeria nodorum. The plants remain in an incubation cabin at 20° C. and 100% relative atmospheric humidity for 48 hours. The plants are placed in a greenhouse at a temperature of about 15° C. and a relative atmospheric humidity of 80%. Evaluation is carried out 10 days after the inoculation. 0% means an efficacy which corresponds to that of the control, whereas an efficacy of 100% means that no infection is observed.

Puccinia recondita = assay: Puccinia test (wheat)/curative; format: in vivo; details: curative spray 48 hours after inoculation, application rate 25 g/ha, evaluation 10 days after inoculation
Protocol: Puccinia test (wheat)/curative
Solvent: 25 parts by weight of N,N-dimethylacetamide
Emulsifier: 0.6 part by weight of alkylaryi polyglycol ether
To produce a suitable preparation of active compound, 1 part by weight of active compound combination is mixed with the stated amounts of solvent and emulsifier, and the concentrate is diluted with water to the desired concentration.
To test for curative activity, young plants are inoculated with a spore suspension of Puccinia recondita in a 0.1% strength aqueous agar solution. 48 hours after the inoculation, the plants are sprayed with the preparation of active compound at the stated application rate.
The plants are placed in a greenhouse at a temperature of about 20° C. and a relative atmospheric humidity of about 80% to promote the development of rust pustules.
Evaluation is carried out 10 days after the inoculation. 0% means an efficacy which corresponds to that of the control, whereas an efficacy of 100% means that no infection is observed.

Row | Compound | Efficacy in % (Leptosphaeria nodorum) | Efficacy in % (Puccinia recondita)
1 | CO/N=C(/C(=O)OC)c1ccccc1CO/N=C(\C)c1cccc(C(F)(F)F)c1 [Ex. (I), 2-[α-{[(α-methyl-3-trifluoromethylbenzyl)imino]oxy}-o-tolyl]glyoxylic acid methyl ester O-methyl oxime] | 67% | 0%
2 | OC(Cc1ccccc1Cl)(Cn1nc[nH]c1=S)C1(Cl)CC1 (stereo not shown) [Ex. (II)] | 56% | 43%
